# Data from US8802597B2, “Herbicidal pyrimidines” (E I du Pont de Nemours and Company, priority 2003, dated 2014).
# Legend:
# Assay in all cases: Test D pre/postemergence
# Format in all cases: in vivo
# Settings in all cases: scale 0 to 100 (100 = complete control)
# kochia (Kochia scoparia) = system: kochia (Kochia scoparia)
# Outline: (§1)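 Formulation: non-phytotoxic solvent mix + surfactant; applied pre-emergence to seeds and post-emergence to 1–4 leaf plants (2–18 cm). Growth chamber 15–25 d; visual comparison with controls, 0 = no effect to 100 = complete control.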
# [1] = system: lambsquarters (Chenopodium album)
# Outline: as §1
# [2] = system: pigweed (Amaranthus retroflexus)
# Outline: as §1
# [3] = system: wheat (Triticum aestivum)
# Outline: as §1
# [4] = system: wild buckwheat (Polygonum convolvulus)
# Outline: as §1
compound,measurement,setting,value
"COC(=O)c1nc(-c2ccc(Cl)cc2)nc(N)c1Cl [Compound 58, methyl 6-amino-5-chloro-2-(4-chlorophenyl)-4-pyrimidinecarboxylate]","Plant response rating, Kochia","kochia (Kochia scoparia); Postemergence, 62 g ai/ha",70
same,"Plant response rating, Kochia","kochia (Kochia scoparia); Postemergence, 125 g ai/ha",100
same,"Plant response rating, Kochia","kochia (Kochia scoparia); Postemergence, 250 g ai/ha",100
same,"Plant response rating, Kochia","kochia (Kochia scoparia); Postemergence, 500 g ai/ha",100
same,"Plant response rating, Kochia","kochia (Kochia scoparia); Preemergence, 62 g ai/ha",35
same,"Plant response rating, Kochia","kochia (Kochia scoparia); Preemergence, 125 g ai/ha",95
same,"Plant response rating, Kochia","kochia (Kochia scoparia); Preemergence, 250 g ai/ha",100
same,"Plant response rating, Kochia","kochia (Kochia scoparia); Preemergence, 500 g ai/ha",100
same,"Plant response rating, Lambsquarters","[1]; Postemergence, 62 g ai/ha",80
same,"Plant response rating, Lambsquarters","[1]; Postemergence, 125 g ai/ha",85
same,"Plant response rating, Lambsquarters","[1]; Postemergence, 250 g ai/ha",100
same,"Plant response rating, Lambsquarters","[1]; Postemergence, 500 g ai/ha",100
same,"Plant response rating, Lambsquarters","[1]; Preemergence, 62 g ai/ha",60
same,"Plant response rating, Lambsquarters","[1]; Preemergence, 125 g ai/ha",100
same,"Plant response rating, Lambsquarters","[1]; Preemergence, 250 g ai/ha",100
same,"Plant response rating, Lambsquarters","[1]; Preemergence, 500 g ai/ha",100
same,"Plant response rating, Pigweed","[2]; Postemergence, 62 g ai/ha",80
same,"Plant response rating, Pigweed","[2]; Postemergence, 125 g ai/ha",100
same,"Plant response rating, Pigweed","[2]; Postemergence, 250 g ai/ha",100
same,"Plant response rating, Pigweed","[2]; Postemergence, 500 g ai/ha",100
same,"Plant response rating, Pigweed","[2]; Preemergence, 62 g ai/ha",70
same,"Plant response rating, Pigweed","[2]; Preemergence, 125 g ai/ha",100
same,"Plant response rating, Pigweed","[2]; Preemergence, 250 g ai/ha",100
same,"Plant response rating, Pigweed","[2]; Preemergence, 500 g ai/ha",100
same,"Plant response rating, Wheat","[3]; Postemergence, 62 g ai/ha",55
same,"Plant response rating, Wheat","[3]; Postemergence, 125 g ai/ha",60
same,"Plant response rating, Wheat","[3]; Postemergence, 250 g ai/ha",70
same,"Plant response rating, Wheat","[3]; Postemergence, 500 g ai/ha",85
same,"Plant response rating, Wheat","[3]; Preemergence, 62 g ai/ha",25
same,"Plant response rating, Wheat","[3]; Preemergence, 125 g ai/ha",50
same,"Plant response rating, Wheat","[3]; Preemergence, 250 g ai/ha",60
same,"Plant response rating, Wheat","[3]; Preemergence, 500 g ai/ha",70
same,"Plant response rating, Buckwheat, Wild","[4]; Postemergence, 62 g ai/ha",65
same,"Plant response rating, Buckwheat, Wild","[4]; Postemergence, 125 g ai/ha",90
same,"Plant response rating, Buckwheat, Wild","[4]; Postemergence, 250 g ai/ha",100
same,"Plant response rating, Buckwheat, Wild","[4]; Postemergence, 500 g ai/ha",100
same,"Plant response rating, Buckwheat, Wild","[4]; Preemergence, 62 g ai/ha",40
same,"Plant response rating, Buckwheat, Wild","[4]; Preemergence, 125 g ai/ha",80
same,"Plant response rating, Buckwheat, Wild","[4]; Preemergence, 250 g ai/ha",100
same,"Plant response rating, Buckwheat, Wild","[4]; Preemergence, 500 g ai/ha",100
Nc1nc(C2CC2)nc(C=O)c1Br [Compound 26],"Plant response rating, Kochia","kochia (Kochia scoparia); Postemergence, 125 g ai/ha",35
same,"Plant response rating, Kochia","kochia (Kochia scoparia); Postemergence, 250 g ai/ha",55
same,"Plant response rating, Kochia","kochia (Kochia scoparia); Preemergence, 125 g ai/ha",55
same,"Plant response rating, Kochia","kochia (Kochia scoparia); Preemergence, 250 g ai/ha",75
same,"Plant response rating, Lambsquarters","[1]; Postemergence, 125 g ai/ha",40
same,"Plant response rating, Lambsquarters","[1]; Postemergence, 250 g ai/ha",50
same,"Plant response rating, Lambsquarters","[1]; Preemergence, 125 g ai/ha",60
same,"Plant response rating, Lambsquarters","[1]; Preemergence, 250 g ai/ha",65
same,"Plant response rating, Pigweed","[2]; Postemergence, 125 g ai/ha",60
same,"Plant response rating, Pigweed","[2]; Postemergence, 250 g ai/ha",70
same,"Plant response rating, Pigweed","[2]; Preemergence, 125 g ai/ha",65
same,"Plant response rating, Pigweed","[2]; Preemergence, 250 g ai/ha",100
same,"Plant response rating, Wheat","[3]; Postemergence, 125 g ai/ha",45
same,"Plant response rating, Wheat","[3]; Postemergence, 250 g ai/ha",20
same,"Plant response rating, Wheat","[3]; Preemergence, 125 g ai/ha",25
same,"Plant response rating, Wheat","[3]; Preemergence, 250 g ai/ha",35
same,"Plant response rating, Buckwheat, Wild","[4]; Postemergence, 125 g ai/ha",35
same,"Plant response rating, Buckwheat, Wild","[4]; Postemergence, 250 g ai/ha",55
same,"Plant response rating, Buckwheat, Wild","[4]; Preemergence, 125 g ai/ha",65
same,"Plant response rating, Buckwheat, Wild","[4]; Preemergence, 250 g ai/ha",95
"COC(=O)c1nc(C2CC2)nc(N)c1Br [Compound 2, methyl 6-amino-5-bromo-2-cyclopropyl-4-pyrimidinecarboxylate]","Plant response rating, Kochia","kochia (Kochia scoparia); Postemergence, 16 g ai/ha",75
same,"Plant response rating, Kochia","kochia (Kochia scoparia); Postemergence, 31 g ai/ha",100
same,"Plant response rating, Kochia","kochia (Kochia scoparia); Postemergence, 62 g ai/ha",100
same,"Plant response rating, Kochia","kochia (Kochia scoparia); Postemergence, 125 g ai/ha",100
same,"Plant response rating, Kochia","kochia (Kochia scoparia); Preemergence, 16 g ai/ha",55
same,"Plant response rating, Kochia","kochia (Kochia scoparia); Preemergence, 31 g ai/ha",70
same,"Plant response rating, Kochia","kochia (Kochia scoparia); Preemergence, 62 g ai/ha",100
same,"Plant response rating, Kochia","kochia (Kochia scoparia); Preemergence, 125 g ai/ha",100
same,"Plant response rating, Lambsquarters","[1]; Postemergence, 16 g ai/ha",60
same,"Plant response rating, Lambsquarters","[1]; Postemergence, 31 g ai/ha",100
same,"Plant response rating, Lambsquarters","[1]; Postemergence, 62 g ai/ha",100
same,"Plant response rating, Lambsquarters","[1]; Postemergence, 125 g ai/ha",100
same,"Plant response rating, Lambsquarters","[1]; Preemergence, 31 g ai/ha",85
same,"Plant response rating, Lambsquarters","[1]; Preemergence, 62 g ai/ha",95
same,"Plant response rating, Lambsquarters","[1]; Preemergence, 125 g ai/ha",100
same,"Plant response rating, Pigweed","[2]; Postemergence, 16 g ai/ha",65
same,"Plant response rating, Pigweed","[2]; Postemergence, 31 g ai/ha",85
same,"Plant response rating, Pigweed","[2]; Postemergence, 62 g ai/ha",100
same,"Plant response rating, Pigweed","[2]; Postemergence, 125 g ai/ha",100
same,"Plant response rating, Pigweed","[2]; Preemergence, 16 g ai/ha",65
same,"Plant response rating, Pigweed","[2]; Preemergence, 31 g ai/ha",70
same,"Plant response rating, Pigweed","[2]; Preemergence, 62 g ai/ha",85
same,"Plant response rating, Pigweed","[2]; Preemergence, 125 g ai/ha",100
same,"Plant response rating, Wheat","[3]; Postemergence, 16 g ai/ha",70
same,"Plant response rating, Wheat","[3]; Postemergence, 31 g ai/ha",70
same,"Plant response rating, Wheat","[3]; Postemergence, 62 g ai/ha",100
same,"Plant response rating, Wheat","[3]; Postemergence, 125 g ai/ha",100
same,"Plant response rating, Wheat","[3]; Preemergence, 16 g ai/ha",45
same,"Plant response rating, Wheat","[3]; Preemergence, 31 g ai/ha",60
same,"Plant response rating, Wheat","[3]; Preemergence, 62 g ai/ha",70
same,"Plant response rating, Wheat","[3]; Preemergence, 125 g ai/ha",70
same,"Plant response rating, Buckwheat, Wild","[4]; Postemergence, 16 g ai/ha",45
same,"Plant response rating, Buckwheat, Wild","[4]; Postemergence, 31 g ai/ha",65
same,"Plant response rating, Buckwheat, Wild","[4]; Postemergence, 62 g ai/ha",90
same,"Plant response rating, Buckwheat, Wild","[4]; Postemergence, 125 g ai/ha",95
same,"Plant response rating, Buckwheat, Wild","[4]; Preemergence, 16 g ai/ha",45
same,"Plant response rating, Buckwheat, Wild","[4]; Preemergence, 31 g ai/ha",65
same,"Plant response rating, Buckwheat, Wild","[4]; Preemergence, 62 g ai/ha",80
same,"Plant response rating, Buckwheat, Wild","[4]; Preemergence, 125 g ai/ha",85
COC(=O)c1nc(C2CC2)nc(NO)c1Br [Compound 35],"Plant response rating, Kochia","kochia (Kochia scoparia); Postemergence, 62 g ai/ha",80
same,"Plant response rating, Kochia","kochia (Kochia scoparia); Postemergence, 125 g ai/ha",85
same,"Plant response rating, Kochia","kochia (Kochia scoparia); Postemergence, 250 g ai/ha",85
same,"Plant response rating, Kochia","kochia (Kochia scoparia); Preemergence, 62 g ai/ha",75
same,"Plant response rating, Kochia","kochia (Kochia scoparia); Preemergence, 125 g ai/ha",100
same,"Plant response rating, Kochia","kochia (Kochia scoparia); Preemergence, 250 g ai/ha",100
same,"Plant response rating, Lambsquarters","[1]; Postemergence, 62 g ai/ha",100
same,"Plant response rating, Lambsquarters","[1]; Postemergence, 125 g ai/ha",100
same,"Plant response rating, Lambsquarters","[1]; Postemergence, 250 g ai/ha",100
same,"Plant response rating, Lambsquarters","[1]; Preemergence, 62 g ai/ha",65
same,"Plant response rating, Lambsquarters","[1]; Preemergence, 125 g ai/ha",75
same,"Plant response rating, Lambsquarters","[1]; Preemergence, 250 g ai/ha",80
same,"Plant response rating, Pigweed","[2]; Postemergence, 62 g ai/ha",100
same,"Plant response rating, Pigweed","[2]; Postemergence, 125 g ai/ha",100
same,"Plant response rating, Pigweed","[2]; Postemergence, 250 g ai/ha",100
same,"Plant response rating, Pigweed","[2]; Preemergence, 62 g ai/ha",65
same,"Plant response rating, Pigweed","[2]; Preemergence, 125 g ai/ha",80
same,"Plant response rating, Pigweed","[2]; Preemergence, 250 g ai/ha",85
same,"Plant response rating, Wheat","[3]; Postemergence, 62 g ai/ha",0
same,"Plant response rating, Wheat","[3]; Postemergence, 125 g ai/ha",65
same,"Plant response rating, Wheat","[3]; Postemergence, 250 g ai/ha",70
same,"Plant response rating, Wheat","[3]; Preemergence, 62 g ai/ha",35
same,"Plant response rating, Wheat","[3]; Preemergence, 125 g ai/ha",40
same,"Plant response rating, Wheat","[3]; Preemergence, 250 g ai/ha",50
same,"Plant response rating, Buckwheat, Wild","[4]; Postemergence, 62 g ai/ha",60
same,"Plant response rating, Buckwheat, Wild","[4]; Postemergence, 125 g ai/ha",70
same,"Plant response rating, Buckwheat, Wild","[4]; Postemergence, 250 g ai/ha",80
same,"Plant response rating, Buckwheat, Wild","[4]; Preemergence, 62 g ai/ha",55
same,"Plant response rating, Buckwheat, Wild","[4]; Preemergence, 125 g ai/ha",60
same,"Plant response rating, Buckwheat, Wild","[4]; Preemergence, 250 g ai/ha",65
